Patent publication US11872236B2, “Pharmacological agents for treating ocular diseases” (CALASIA PHARMACEUTICALS, INC., priority 2018, dated 2024)

Tested on: human lens epithelial (HLE) cells
Assay: Cell-based heat protection, viability by Alamar blue
Set-up: Cell Heat % protection: concentration or dose not given beside the values
Conditions: Table 5
Method: Alamar blue was used for assessing viability. Mean±SEM of the measurements are shown.
Cell-based using assays using human lens epithelial cell lines SRA 01/04 and B3 were also performed. The cells were exposed to UV or heat and cell viability assessed 24 hours post-exposure by Alamar blue staining. In another experiment, SRA 01/04 cells were pre-incubated with varying concentrations of compounds two hours prior to UV exposure. Relative protection was measured as percent viability compared to vehicle control 24 hours following UV exposure. Mean±SEM of the measurements are shown.

| Compound | Cell-based [Heat] (max % net protection) |
| --- | --- |
| Nc1ccc(C(=O)c2ccccc2)cc1N [CAP4129] | 0% |

Same assay, conditions: Table 8

| Compound | Cell Heat % protection |
| --- | --- |
| O=S(=O)([O-])c1cc(O)c2cc(O)ccc2c1.[Na+] [CAP4186] | 17% |
| Nc1cc(S(=O)(=O)O)cc2cc(S(=O)(=O)O)cc(O)c12 [CAP4179] | 29% |
| Nc1c(O)cc(S(=O)(=O)O)c2ccccc12 [CAP4188] | 2% |
| Nc1ccc2cc(S(=O)(=O)[O-])cc(O)c2c1.[Na+] [CAP4187] | 19% |
| O=S(=O)(O)c1cc(O)c2cc(Nc3ccccc3)ccc2c1 [CAP4183] | 17% |
| Nc1ccc2c(O)cc(S(=O)(=O)O)cc2c1 [CAP4180] | 22% |
| Nc1ccc2c(O)cc(S(=O)(=O)O)cc2c1 [CAP4190] | 15% |

Tested on: SRA 01/04 HLE cells
Assay: Cell-based UV protection, viability by Alamar blue;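 further: cells pretreated with compound at a range of concentrations before UV irradiation, viability read 24 h after exposure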
Set-up: species or system human
Conditions: Table 5

| Compound | Cell-based [UV] (max % net protection) |
| --- | --- |
| Nc1ccc(Cl)cc1C(=O)c1ccccc1Cl [CAP4126] | 0% |
| Nc1ccc(C(=O)c2ccccc2)cc1N [CAP4129] | 37% |
| Nc1ccc(C(=O)c2ccccc2)cc1 [CAP4128] | 23% |
| CCc1onc2ccc(C(=O)c3ccccc3)cc12 [CAP4258] | 36% |
| COc1ccc(C(=O)c2ccc([N+](=O)[O-])cc2)cc1S(=O)(=O)NCc1ccccc1 [CAP4256] | 7% |
| COc1ccc(C(=O)c2ccc([N+](=O)[O-])cc2)cc1S(=O)(=O)NC1CCCCC1 [CAP4257] | 19% |
| O=C(c1ccccc1)c1ccc([N+](=O)[O-])cc1 [CAP4131] | 0% |

Target: T1, alpha-A crystalline (Homo sapiens, UniProt P02489)
T1 sequence (P02489 1-173): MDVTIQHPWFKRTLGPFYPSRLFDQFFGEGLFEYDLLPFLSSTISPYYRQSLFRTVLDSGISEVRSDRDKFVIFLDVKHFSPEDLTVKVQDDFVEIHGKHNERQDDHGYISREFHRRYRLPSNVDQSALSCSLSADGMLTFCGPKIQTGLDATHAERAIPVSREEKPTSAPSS
Assay: Ca+2 and UVC induced aggregation of alpha-A crystalline (absorbance screen);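 further: recombinant human alpha-A crystallin (500 µg/ml) preincubated 30 min with compound, then UV-induced aggregation tracked by absorbance at time points from 0 to 120 min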
Type: biochemical
Conditions: 200 μM; Ca+2 and UVC induced aggregation of alpha-A crystalline

| Compound | Percent protection (at 200 μM) |
| --- | --- |
| COc1ccc(CCNC(=O)CCC2CCCCC2)cc1OC [CAP1224] | 46% |
| CC(CCc1ccc(O)cc1)NCCc1ccc(O)c(O)c1 (stereo not drawn) [CAP1264] | 3% |
| Oc1cc(O)c2c(c1)O[C@H](c1ccc(O)c(O)c1)[C@H](O)C2 [CAP3042] | −17% |
| Oc1cc(O)c2c(c1)O[C@H](c1ccc(O)c(O)c1)[C@H](O)C2 [CAP1049] | −5% |
| Oc1cc(O)c2c(c1)O[C@H](c1ccc(O)c(O)c1)[C@H](O)C2 [CAP3032] | −16% |
| COc1ccc(CCNC(=O)CCCC(=O)NCCc2ccc(OC)c(OC)c2)cc1OC [CAP1278] | 38% |
| COc1ccc(CCNC(=O)CCCC(=O)NCCc2ccc(OC)c(OC)c2)cc1OC [CAP1228, N,N′-bis[2-(3,4-dimethoxyphenyl)ethyl]pentanediamide] | 60% |
| CC(CCc1ccc(O)cc1)NCCc1ccc(O)c(O)c1 (stereo not drawn) [CAP1266] | −14% |

Same assay, conditions: 200 μM; Ca+2 and UVC induced aggregation of alpha-A crystalline; read-out: Percent protection (at 200 μM)

| Compound | inhibition at 200 µM |
| --- | --- |
| CCC(CC)C(=O)NCCc1ccc(OC)c(OC)c1 [CAP1223] | 29% |
| O=C(O[C@H]1Cc2c(O)cc(O)cc2O[C@H]1c1cc(O)c(O)c(O)c1)c1cc(O)c(O)c(O)c1 [CAP1460] | 1% |
| O=C(OC[C@H]1OC(OC(=O)c2cc(O)c(O)c(OC(=O)c3cc(O)c(O)c(O)c3)c2)[C@H](OC(=O)c2cc(O)c(O)c(OC(=O)c3cc(O)c(O)c(O)c3)c2)[C@@H](OC(=O)c2cc(O)c(O)c(OC(=O)c3cc(O)c(O)c(O)c3)c2)[C@@H]1OC(=O)c1cc(O)c(O)c(OC(=O)c2cc(O)c(O)c(O)c2)c1)c1cc(O)c(O)c(OC(=O)c2cc(O)c(O)c(O)c2)c1 (stereo partly drawn) [CAP1176] | 76% |
| COc1cc2nc(N3CCN(C(=O)C4COc5ccccc5O4)CC3)nc(N)c2cc1OC (stereo not drawn) [CAP3035] | 114% |
| CCN(CC)C(=O)/C(C#N)=C/c1cc(O)c(O)c([N+](=O)[O-])c1 [CAP1159] | 27% |
| COc1ccc(CCNC(=O)C2CCCC2)cc1OC [CAP1231, N-[2-(3,4-dimethoxyphenyl)ethyl]cyclopentanecarboxamide] | 51% |
| COc1cc(C(=O)O)cc(OC)c1O [CAP3107] | 7% |
| CC(=O)/C=C/c1ccc(O)c(O)c1 [CAP3065] | -32% |
| NCCc1ccc(O)c(O)c1 [CAP1265] | -6% |
| O=C(CC1CCC1)NCCc1ccc(O)c(O)c1 [CAP1239] | 23% |
| COc1cc(CNc2cccc(C)n2)cc([N+](=O)[O-])c1O [CAP1112] | 12% |
| COc1ccc(CCNC(=O)CCC2CCCCC2)cc1OC [CAP1274] | 55% |
| COc1ccc(CCNC(=O)C2CCN(C(=O)Cc3ccccc3)CC2)cc1OC [CAP1227, N-[2-(3,4-dimethoxyphenyl)ethyl]-1(phenylacetyl)-4-piperidinecarboxamide] | 46% |
| Oc1ccc(CCNCCCCCCNCCc2ccccc2)cc1O [CAP1215] | -47% |
| O=C(NCCc1ccccc1)C1CCC(C(=O)NCCc2ccccc2)CC1 (stereo not drawn) [CAP1280] | 44% |
| COc1ccc(/C=C/C(C)=O)cc1OC [CAP3066] | 21% |
| COc1ccc(/C=C/C(=O)O)cc1OC [CAP3064] | 12% |
| Oc1cc2cc[nH]c2cc1O [CP1194] | 25% |
| COc1ccc(CCNC(=O)C2CCCCC2)cc1OC [CAP1222] | 38% |
| O=c1c(O)c(-c2ccc(O)c(O)c2)oc2cc(O)cc(O)c12 [CAP1451] | 35% |
| O=C(O)[C@H]1OC(Oc2cc3oc(-c4ccccc4)cc(=O)c3c(O)c2O)[C@H](O)[C@@H](O)[C@@H]1O (stereo partly drawn) [CAP1052] | 3% |
| COc1ccc(CCNC(=O)CCCC2CCCC2)cc1OC [CAP1236] | -2% |
| COc1ccc(CCNC(=O)C2CC2)cc1OC [CAP1230, N-[2-(3,4-dimethoxyphenyl)ethyl]cyclopropanecarboxamide] | 18% |
| COc1ccc(CCNC(=O)C2CCN(C(=O)c3ccc(F)cc3)CC2)cc1OC [CAP1232] | 41% |
| CCCCCCCCCCCCCCCCCC(=O)NCCc1ccc(O)c(O)c1 [CAP1241] | 135% |
| COC(=O)[C@@H](NC(C)=O)c1ccc(OC(C)=O)c(OC(C)=O)c1 [CAP1518] | -4% |
| CC(=O)c1cc(C)cc([N+](=O)[O-])c1O [CAP3071] | 30% |

| Compound | inhibition at 200 µM |
| --- | --- |
| O=C(O)/C=C/c1ccc(O)c(O)c1 [CAP3062] | 16% |
| C[C@](N)(Cc1ccc(O)c(O)c1)C(=O)O [CAP1056] | -5% |
| COc1ccc(CCNC(=O)CC23CC4CC(CC(C4)C2)C3)cc1OC [CAP1281] | 64% |
| COc1cc2cc(C(=O)O)[nH]c2cc1OC [CAP1447] | 22% |
| O=c1c(O)c(-c2ccc(O)c(O)c2)oc2cc(O)ccc12 [CAP1053] | 52% |
| C[C@@](Cc1ccc(O)c(O)c1)(NN)C(=O)O [CAP1055] | 1% |
| Oc1ccc(C2CNCCc3c2cc(O)c(O)c3Cl)cc1 (stereo not drawn) [CAP1044] | -16% |
| O=C1O[C@H]([C@@H](O)CO)C(O)=C1O [CAP3037] | -2% |
| COc1cc2cc[nH]c2cc1OC [CAP1519] | 9% |
| CNC[C@H](O)c1ccc(O)c(O)c1 [CAP1043] | -5% |
| COc1cc(CC2NCCc3cc(O)c(O)cc32)cc(OC)c1OC (stereo not drawn) [CAP1058] | -27% |
| O=C(NCCc1ccc(O)c(O)c1)C12CC3CC(CC(C3)C1)C2 [CAP1057] | -8% |
| COc1ccc(CC(=O)NC2CCCCCCCCCCC2)cc1OC [CAP1279] | 5% |
| COc1cc(/C=C/C(=O)/C=C(O)/C=C/c2ccc(O)c(OC)c2)ccc1O [CAP1459] | -95% |
| COc1cc(/C=C/C(=O)CC(=O)/C=C/c2ccc(O)c(OC)c2)ccc1O [CAP3040] | 4% |
| COc1ccc(CCNC(=O)CCCC(=O)NCOc2ccc(OC)cc2)cc1 [CAP1229] | 22% |
| Oc1cc(O)c2c(c1)O[C@@H](c1ccc(O)c(O)c1)[C@@H](O)C2 [CAP1458] | -17% |
| O=C1c2ccc(S(=O)(=O)O)c(O)c2C(=O)c2ccc(S(=O)(=O)O)c(O)c21 [CAP1219] | -5% |
| NC(=O)c1ncn([C@@H]2O[C@H](CO)[C@@H](O)[C@H]2O)n1 [CAP1380] | 16% |
| O=C1c2ccccc2C(=O)c2c1cc(S(=O)(=O)O)c(O)c2O [CAP1072] | 53% |
| Oc1cc(O)c2c(c1)O[C@H](c1ccc(O)c(O)c1)[C@@H](O)C2 [CAP1047] | -17% |
| O=C1c2ccccc2C(=O)c2c1ccc(S(=O)(=O)O)c2O [CAP1220] | 20% |
| COc1cc(/C=N/c2cccc(C)n2)cc([N+](=O)[O-])c1O [CAP1110] | 19% |
| COc1ccc(CCNC(=O)C2CCC2)cc1OC [CAP1226, N-[2-(3,4-dimethoxyphenyl)ethyl]cyclobutanecarboxamide] | 72% |
| COc1ccc(CCNC(=O)CCCCC(=O)NCCc2ccc(OC)c(OC)c2)cc1OC [CAP1225] | 50% |
| CC(=O)Oc1cc2cc[nH]c2cc1OC(C)=O [CAP1517] | 40% |

Same assay, conditions: preventing Ca+2 and UVC induced aggregation of alpha-A crystalline

| Compound | EC50 |
| --- | --- |
| COc1ccc(CCNC(=O)CCC2CCCCC2)cc1OC [CAP1224] | 880 µM |
| CCN(CC)C(=O)/C(C#N)=C/c1cc(O)c(O)c([N+](=O)[O-])c1 [CAP1159] | 313 µM |
| COc1ccc(CCNC(=O)C2CCN(C(=O)Cc3ccccc3)CC2)cc1OC [CAP1227, N-[2-(3,4-dimethoxyphenyl)ethyl]-1(phenylacetyl)-4-piperidinecarboxamide] | 288 µM |
| O=C(NCCc1ccccc1)C1CCC(C(=O)NCCc2ccccc2)CC1 (stereo not drawn) [CAP1280] | 193 µM |
| Oc1cc2cc[nH]c2cc1O [CP1194] | 1100 µM |
| O=c1c(O)c(-c2ccc(O)c(O)c2)oc2cc(O)ccc12 [CAP1053] | 461 µM |
| N[C@@H](Cc1ccc(O)c(O)c1)C(=O)O [CAP1042] | 860 µM |
| COc1ccc(CCNC(=O)C2CCC2)cc1OC [CAP1226, N-[2-(3,4-dimethoxyphenyl)ethyl]cyclobutanecarboxamide] | 46.2 µM |

Same assay, conditions: read-out: Percent protection (at 200 μM)

| Compound | inhibition at 200 µM |
| --- | --- |
| CC(CCc1ccc(O)cc1)NCCc1ccc(O)c(O)c1 (stereo not drawn) [CAP1051] | -28% |
| CC1CCC(NC(C)Cc2ccc(O)c(O)c2)CC1 (stereo not drawn) [CAP1240] | -13% |
| Cc1cc2c(C(C)C)c(O)c(O)c(C=O)c2c(O)c1-c1c(C)cc2c(C(C)C)c(O)c(O)c(C=O)c2c1O [CAP1356] | -46% |
